Test results published in PubChem BioAssay (NCI).
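Cultured in 96-well plates, cells were exposed to test compound for 48 hours across five concentrations. Definition used: TGI = concentration required for complete inhibition of growth.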

Key:
Experiment in all cases: NCI anticancer screen, dose series, 48 h
786-0 renal = system: 786-0 renal
A498 renal = system: A498 renal
A549 NSCLC = system: A549 NSCLC
ACHN renal = system: ACHN renal
BT-549 breast = system: BT-549 breast
CAKI-1 renal = system: CAKI-1 renal
CCRF-CEM leukemia = system: CCRF-CEM leukemia
COLO 205 colon = system: COLO 205 colon
DU-145 prostate = system: DU-145 prostate
EKVX NSCLC = system: EKVX NSCLC
HCC-2998 colon = system: HCC-2998 colon
HCT-116 colon = system: HCT-116 colon
HCT-15 colon = system: HCT-15 colon
HOP-62 NSCLC = system: HOP-62 NSCLC
HOP-92 NSCLC = system: HOP-92 NSCLC
HS 578T breast = system: HS 578T breast
HT29 colon = system: HT29 colon
IGROV1 ovarian = system: IGROV1 ovarian
K-562 leukemia = system: K-562 leukemia
KM12 colon = system: KM12 colon
LOX IMVI melanoma = system: LOX IMVI melanoma
M14 melanoma = system: M14 melanoma
MALME-3M melanoma = system: MALME-3M melanoma
MCF7 breast = system: MCF7 breast
MDA-MB-231 breast = system: MDA-MB-231 breast
MDA-MB-435 = system: MDA-MB-435
MDA-N = system: MDA-N
MOLT-4 leukemia = system: MOLT-4 leukemia
NCI-H226 lung = system: NCI-H226 lung
NCI-H23 lung = system: NCI-H23 lung
NCI-H460 lung = system: NCI-H460 lung
NCI-H522 lung = system: NCI-H522 lung
NCI/ADR-RES ovarian = system: NCI/ADR-RES ovarian
OVCAR-3 ovarian = system: OVCAR-3 ovarian
OVCAR-5 ovarian = system: OVCAR-5 ovarian
OVCAR-8 ovarian = system: OVCAR-8 ovarian
PC-3 prostate = system: PC-3 prostate
RPMI-8226 leukemia = system: RPMI-8226 leukemia
SF-268 CNS = system: SF-268 CNS
SF-295 CNS = system: SF-295 CNS
SF-539 CNS = system: SF-539 CNS
SK-MEL-2 melanoma = system: SK-MEL-2 melanoma
SK-MEL-28 melanoma = system: SK-MEL-28 melanoma
SK-MEL-5 melanoma = system: SK-MEL-5 melanoma
SK-OV-3 ovarian = system: SK-OV-3 ovarian
SN12C renal = system: SN12C renal
SNB-19 CNS = system: SNB-19 CNS
SNB-75 CNS = system: SNB-75 CNS
SR leukemia = system: SR leukemia
SW-620 colon = system: SW-620 colon
T-47D breast = system: T-47D breast
U251 CNS = system: U251 CNS
UACC-257 melanoma = system: UACC-257 melanoma
UACC-62 melanoma = system: UACC-62 melanoma
UO-31 renal = system: UO-31 renal
OVCAR-4 ovarian = system: OVCAR-4 ovarian
RXF 393 renal = system: RXF 393 renal
TK-10 renal = system: TK-10 renal

Measured: TGI

CCCCCCCC(CC(=O)O)OC(=O)CC(CCCCCCC)OC1OC(C)C(O)C(O)C1OC1OC(C)C(O)C(O)C1O (stereo not drawn)
not listed: OVCAR-4 ovarian | RXF 393 renal | TK-10 renal
> 100 µM: all other assays above

c1ccc(COc2ncccc2C2SCCCS2)cc1
not listed: HT29 colon | MOLT-4 leukemia | NCI-H460 lung | SK-OV-3 ovarian | SNB-75 CNS
> 100 µM: all other assays above
